According to PMC6816013 (Journal of Medicinal Chemistry, 2019):
Counter-ions that a name gives are not always drawn. Like-named read-outs stand apart in the source and are kept apart here.

Key:
[1] = biological target: HSA (Homo sapiens, UniProt P02768); test: HSA binding (plasma protein binding); format: in vitro ADME
HSA, sequence (P02768 25-609): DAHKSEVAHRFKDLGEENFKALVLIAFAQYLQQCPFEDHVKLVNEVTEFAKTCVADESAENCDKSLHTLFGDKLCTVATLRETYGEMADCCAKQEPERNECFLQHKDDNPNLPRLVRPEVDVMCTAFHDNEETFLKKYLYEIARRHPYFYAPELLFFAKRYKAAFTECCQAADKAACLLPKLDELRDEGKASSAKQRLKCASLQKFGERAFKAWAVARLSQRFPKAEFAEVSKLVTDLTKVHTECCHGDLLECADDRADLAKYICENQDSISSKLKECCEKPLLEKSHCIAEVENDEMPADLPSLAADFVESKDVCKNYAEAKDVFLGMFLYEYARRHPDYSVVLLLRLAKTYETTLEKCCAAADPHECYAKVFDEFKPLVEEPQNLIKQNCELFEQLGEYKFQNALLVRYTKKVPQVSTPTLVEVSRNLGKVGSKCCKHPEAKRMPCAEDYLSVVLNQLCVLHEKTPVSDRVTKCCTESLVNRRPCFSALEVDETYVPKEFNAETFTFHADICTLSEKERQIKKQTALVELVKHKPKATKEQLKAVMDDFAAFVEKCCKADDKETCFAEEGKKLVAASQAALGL

Compound	AMP (PAMPA)	AMP (Tables 2 and 5) [cm/s]	HSA binding [1] [%]
Fc1ccc(-c2nc(N3CCOCC3)sc2-c2ccnc(Nc3ccc(N4CCNCC4)cc3)n2)cc1 [Compound 9, 4-[4-(4-Fluorophenyl)-2-(morpholin-4-yl)-1,3-thiazol-5-yl]-N-[4-(piperazin-1-yl)phenyl]pyrimidin-2-amine Trifluoroacetate]	2.8	–	–
Fc1ccc(-c2nc(C3CCNCC3)oc2-c2ccnc(Nc3ccncn3)n2)cc1 [Compound 28B]	–	1.9e-06	89
Fc1ccc(-c2nc(N3CCCC3)sc2-c2ccnc(Nc3ccc(N4CCNCC4)cc3)n2)cc1 [Compound 10, 4-[4-(4-Fluorophenyl)-2-(pyrrolidin-1-yl)-1,3-thiazol-5-yl]-N-[4-(piperazin-1-yl)phenyl]pyrimidin-2-amine Trifluoroacetate]	2.7	–	–
Fc1ccc(-c2nc(C3CCNCC3)sc2-c2ccnc(Nc3nncs3)n2)cc1 [Compound 19, N-(4-(4-(4-Fluorophenyl)-2-(piperidin-4-yl)thiazol-5-yl)pyrimidin-2-yl)-1,3,4-thiadiazol-2-amine]	–	< 1e-07	92
CN1CCC(C(=O)Nc2nc(-c3ccc(F)cc3)c(-c3ccnc(Nc4ccc(N5CCNCC5)cc4)n3)s2)CC1 [Compound 16, N-[4-(4-Fluorophenyl)-5-{2-[4-(piperazin-1-yl)anilino]pyrimidin-4-yl}-1,3-thiazol-2-yl]-1-methylpiperidine-4-carboxamide Trifluoroacetate]	0.1	–	–
CCc1cc(Nc2nccc(-c3sc(C4CCNCC4)nc3-c3ccc(F)cc3)n2)nc(C)c1F [Compound 36, N-(4-Ethyl-5-fluoro-6-methylpyridin-2-yl)-4-(4-(4-fluorophenyl)-2-(piperidin-4-yl)thiazol-5-yl)pyrimidin-2-amine]	–	–	97
CCCS(=O)(=O)Nc1nc(-c2ccc(F)cc2)c(-c2ccnc(Nc3ccc(N4CCNCC4)cc3)n2)s1 [Compound 17, N-[4-(4-Fluorophenyl)-5-{2-[4-(piperazin-1-yl)anilino]pyrimidin-4-yl}-1,3-thiazol-2-yl]propane-1-sulfonamide Trifluoroacetate]	0.3	–	–
Cc1cc(Nc2nccc(-c3sc(C4CCNCC4)nc3-c3ccc(F)cc3)n2)nn1C [Compound 23, N-(1,5-Dimethyl-1H-pyrazol-3-yl)-4-(4-(4-fluorophenyl)-2-(piperidin-4-yl)thiazol-5-yl)pyrimidin-2-amine]	–	2e-06	93
Fc1ccc(-c2nc(C3CCNCC3)sc2-c2ccnc(NCCN3CCOCC3)n2)cc1 [Compound 49, 4-(4-(4-Fluorophenyl)-2-(piperidin-4-yl)thiazol-5-yl)-N-(2-morpholinoethyl)pyrimidin-2-amine]	–	–	83
COc1cc(Nc2nccc(-c3sc(C4CCNCC4)nc3-c3ccc(F)cc3)n2)cc(C)n1 [Compound 34, 4-[4-(4-Fluorophenyl)-2-(piperidin-4-yl)-1,3-thiazol-5-yl]-N-(2-methoxy-6-methylpyridin-4-yl)pyrimidin-2-amine Trifluoroacetate]	1.9	–	–
Fc1ccc(-c2nc(C3CCNCC3)sc2-c2ccnc(Nc3cccnn3)n2)cc1 [Compound 27, N-(4-(4-(4-Fluorophenyl)-2-(piperidin-4-yl)thiazol-5-yl)pyrimidin-2-yl)pyridazin-3-amine]	–	1.9e-06	90
OCCNc1nccc(-c2sc(C3CCNCC3)nc2-c2ccc(F)cc2)n1 [Compound 42, 2-({4-[4-(4-Fluorophenyl)-2-(piperidin-4-yl)-1,3-thiazol-5-yl]pyrimidin-2-yl}amino)ethanol]	–	–	79
Oc1cc(Nc2nccc(-c3sc(C4CCNCC4)nc3-c3ccc(F)cc3)n2)ccn1 [Compound 33, 4-({4-[4-(4-Fluorophenyl)-2-(piperidin-4-yl)-1,3-thiazol-5-yl]pyrimidin-2-yl}amino)pyridin-2-ol Trifluoroacetate]	0.2	–	–
Fc1ccc(-c2nc(C3CCNCC3)sc2-c2ccnc(N3CCC(N4CCC4)CC3)n2)cc1 [Compound 55, 2-[4-(Azetidin-1-yl)piperidin-1-yl]-4-[4-(4-fluorophenyl)-2-(piperidin-4-yl)-1,3-thiazol-5-yl]pyrimidine]	–	–	90
CN1CCN(c2ccc(Nc3nccc(-c4sc(N)nc4-c4ccc(F)cc4)n3)cc2)CC1 [Compound 11, 4-[2-Amino-4-(4-fluorophenyl)-1,3-thiazol-5-yl]-N-[4-(4-methylpiperazin-1-yl)phenyl]pyrimidin-2-amine Trifluoroacetate]	2.6	–	–
CCOC(=O)N1CCC(c2nc(-c3ccc(F)cc3)c(-c3ccnc(Nc4ccc(N5CCN(C)CC5)cc4)n3)s2)CC1 [Compound 8]	–	–	98
CN(C)CCNc1nccc(-c2sc(C3CCNCC3)nc2-c2ccc(F)cc2)n1 [Compound 45, N′-{4-[4-(4-Fluorophenyl)-2-(piperidin-4-yl)-1,3-thiazol-5-yl]pyrimidin-2-yl}-N,N-dimethylethane-1,2-diamine]	–	–	83

Compound	AMP (PAMPA)	AMP (Tables 2 and 5) [cm/s]	HSA binding [1] [%]
Cc1nc(Nc2nccc(-c3sc(C4CCNCC4)nc3-c3ccc(F)cc3)n2)cc(C2CCC2)c1F [Compound 38, N-(4-Cyclobutyl-5-fluoro-6-methylpyridin-2-yl)-4-(4-(4-fluorophenyl)-2-(piperidin-4-yl)thiazol-5-yl)pyrimidin-2-amine]	–	–	98
CN1CCC(Nc2nccc(-c3sc(C4CCNCC4)nc3-c3ccc(F)cc3)n2)C1 (centres unmarked) [Compound 52, 4-[4-(4-Fluorophenyl)-2-(piperidin-4-yl)-1,3-thiazol-5-yl]-N-(1-methylpyrrolidin-3-yl)pyrimidin-2-amine]	–	–	89
Fc1ccc(-c2nc(C3CCNCC3)sc2-c2ccnc(N3CCC(N4CCOCC4)CC3)n2)cc1 [Compound 56, 4-(1-(4-(4-(4-Fluorophenyl)-2-(piperidin-4-yl)thiazol-5-yl)pyrimidin-2-yl)piperidin-4-yl)morpholine]	–	–	90
c1cc(Nc2nccc(-c3sc(C4CCNCC4)nc3C3CC3)n2)ncn1 [Compound 58, 4-(4-Cyclopropyl-2-(piperidin-4-yl)thiazol-5-yl)-N-(pyrimidin-4-yl)pyrimidin-2-amine Hydrochloride]	1.8	–	–
Nc1nc(-c2ccc(F)cc2)c(-c2ccnc(Nc3ccc(N4CCNCC4)cc3)n2)s1 [Compound 12, 4-[2-Amino-4-(4-fluorophenyl)-1,3-thiazol-5-yl]-N-[4-(piperazin-1-yl)phenyl]pyrimidin-2-amine]	–	–	98
Fc1ccc(-c2nc(C3CCNCC3)sc2-c2ccnc(NCC3CCCO3)n2)cc1 (centres unmarked) [Compound 44, 4-[4-(4-Fluorophenyl)-2-(piperidin-4-yl)-1,3-thiazol-5-yl]-N-(tetrahydrofuran-2-ylmethyl)pyrimidin-2-amine]	–	–	86
Fc1ccc(-c2nc(C3CCNCC3)sc2-c2ccnc(NCCN3CCCC3)n2)cc1 [Compound 47, 4-[4-(4-Fluorophenyl)-2-(piperidin-4-yl)-1,3-thiazol-5-yl]-N-[2-(pyrrolidin-1-yl)ethyl]pyrimidin-2-amine]	–	–	86
OC1CCN(c2nccc(-c3sc(C4CCNCC4)nc3-c3ccc(F)cc3)n2)C1 (centres unmarked) [Compound 54, 1-{4-[4-(4-Fluorophenyl)-2-(piperidin-4-yl)-1,3-thiazol-5-yl]pyrimidin-2-yl}pyrrolidin-3-ol]	–	–	85
O[C@H]1CC[C@H](Nc2nccc(-c3sc(C4CCNCC4)nc3-c3ccc(F)cc3)n2)CC1 [Compound 51, trans-4-({4-[4-(4-Fluorophenyl)-2-(piperidin-4-yl)-1,3-thiazol-5-yl]pyrimidin-2-yl}amino)cyclohexanol]	–	–	85
O=S(=O)(Nc1nc(-c2ccc(F)cc2)c(-c2ccnc(Nc3ccc(N4CCNCC4)cc3)n2)s1)C1CCNCC1 [Compound 18, N-[4-(4-Fluorophenyl)-5-{2-[4-(piperazin-1-yl)anilino]pyrimidin-4-yl}-1,3-thiazol-2-yl]piperidine-4-sulfonamide Trifluoroacetate]	0.3	–	–
COCCNc1nccc(-c2sc(C3CCNCC3)nc2-c2ccc(F)cc2)n1 [Compound 43, 4-[4-(4-Fluorophenyl)-2-(piperidin-4-yl)-1,3-thiazol-5-yl]-N-(2-methoxyethyl)pyrimidin-2-amine]	–	–	80
Fc1ccc(-c2nc(C3CCNCC3)sc2-c2ccnc(N3CCC(CN4CCOCC4)CC3)n2)cc1 [Compound 57, 4-((1-(4-(4-(4-Fluorophenyl)-2-(piperidin-4-yl)thiazol-5-yl)pyrimidin-2-yl)piperidin-4-yl)methyl)morpholine]	–	–	93
CCOc1nccc(Nc2nccc(-c3sc(C4CCNCC4)nc3-c3ccc(F)cc3)n2)n1 [Compound 30, N-(2-Ethoxypyrimidin-4-yl)-4-[4-(4-fluorophenyl)-2-(piperidin-4-yl)-1,3-thiazol-5-yl]pyrimidin-2-amine Trifluoroacetate]	1.7	–	–
CN1CCN(CCNc2nccc(-c3sc(C4CCNCC4)nc3-c3ccc(F)cc3)n2)CC1 [Compound 48, 4-[4-(4-Fluorophenyl)-2-(piperidin-4-yl)-1,3-thiazol-5-yl]-N-[2-(4-methylpiperazin-1-yl)ethyl]pyrimidin-2-amine]	–	–	90
Fc1ccc(-c2nc(C3CCNCC3)sc2-c2ccnc(N3CCCC3)n2)cc1 [Compound 53, 4-[4-(4-Fluorophenyl)-2-(piperidin-4-yl)-1,3-thiazol-5-yl]-2-(pyrrolidin-1-yl)pyrimidine]	–	–	93
CN(C)C(CNc1nccc(-c2sc(C3CCNCC3)nc2-c2ccc(F)cc2)n1)C1CC1 (centres unmarked) [Compound 46, 1-Cyclopropyl-N′-{4-[4-(4-fluorophenyl)-2-(piperidin-4-yl)-1,3-thiazol-5-yl]pyrimidin-2-yl}-N,N-dimethylethane-1,2-diamine]	–	–	91
O=C(Nc1nc(-c2ccc(F)cc2)c(-c2ccnc(Nc3ccc(N4CCNCC4)cc3)n2)s1)C1CC1 [Compound 15, N-[4-(4-Fluorophenyl)-5-{2-[4-(piperazin-1-yl)anilino]pyrimidin-4-yl}-1,3-thiazol-2-yl]cyclopropanecarboxamide Trifluoroacetate]	0.2	–	–
